Results taken from patent US7569539B2, “Oral administration of calcitonin” (Novartis AG, priority 2002, dated 2009).
Where two headings read alike, the source gives them in different places.

Assays:
[1] = Effect of meal timing on plasma sCT after oral sCT/5-CNAC tablet in human subjects (Example 7); format: in vivo; settings: for AUC / Cmax: both sexes, human, plasma, po, 1 mg, oral tablet 1 mg sCT + 5-CNAC disodium salt, plasma sCT; for AUC: read-out: Mean AUC ± SD; for Cmax: read-out: Mean Cmax ± SD
Method: The effect of administration of a tablet formulation of sCT in combination with 5-CNAC disodium salt at various time intervals relative to meals is measured in human subjects.
The tablet formulation employed is a formulation according to Example 5, comprising 1 mg sCT and 5-CNAC disodium salt in an amount corresponding to […] of 5-CNAC.
The study employs a seven-period, randomized, open-label, balanced Latin-square, crossover design. Twenty-one human healthy adult subjects (7 males, 7 pre-menopausal females and 7 post-menopausal females), between the ages of 18 and 65 years of age are involved. Pre- and post-menopausal females are matched for height (±0.5 cm) and weight (±8%).
The study consists of a screening period (−21 to −2 days prior to dosing), a baseline period (24-hour period prior to dosing, or day −1), and a treatment period comprised of seven daily single-dose administrations. Subjects are instructed to fast for at least 8 hours prior to undergoing screening evaluations so that blood samples can be drawn for bioanalytical testing. At baseline, subjects are admitted to the study center at least 12 hours prior to dosing and remain domiciled until study completion (one day following the final dose of study drug, or study day 8). The interdose interval between each treatment will be approximately 24 hours. Subjects are randomized according to the treatment allocation schedule to receive a single oral dose under either fasted or fed conditions. Under fed conditions, meal times vary relative to a fixed dosing time, in order to assess the effect of varying meal and dose intervals on drug pharmacokinetics.
During the treatment period, subjects fast overnight for a minimum of 10 hours prior to dosing, except when the specified treatment condition requires a meal to be served pre-dose. Dosing occurs between 9 and 10 AM for seven consecutive days. Meal times vary around a fixed dosing interval over a seven-day treatment period in order to determine optimal dosing times relative to food intake. Included is the administration of study drug under fasting conditions, which will serve as the reference condition to assess drug pharmacokinetics under varying meal and dose intervals, as well as study drug administration with meals, to determine the extent of food interaction.
The order in which subjects are initially dosed remains consistent throughout the study, so that the first subject dosed in period 1 remains the first subject dosed across all treatment conditions. Except where fasting is the specified treatment condition, subjects receive a standardized FDA (or equivalent) high-fat breakfast at a different time each day relative to dosing. Subjects whose treatment assignment is to fast, continue fasting for at least four hours post-dose, after which they may receive a standard meal at the specified time. Sampling for pharmacokinetic assessments are performed at scheduled intervals for up to 8 hours post-dose. If pharmacokinetic sampling times coincide with the start of a meal, sampling occurs first. Subjects are discharged from the study center one day following the final dose of study drug (day 8), after the completion of all safety evaluations.
Pharmacokinetic blood sampling is performed each day at the following timepoints (unless otherwise specified, when sampling times coincide with the start of a meal, sampling is done first): pre-dose (5 mL blood on each treatment day, lithium-heparin tubes to yield plasma), and then 5, 10, 15, 30, 45, 60, 90, 120, 180 and 240 minutes post-dose (3 mL blood), lithium-heparin tube to yield plasma). For treatment conditions B, C, D and E (see table below) one additional sample (3 mL) is obtained at 5 minutes after the start of the meal. For treatment condition E, the 10 minute sample also represents the 5-minute post-meal sample. For treatment B only, one additional sample is obtained at 15 minutes after the start of the meal (i.e., at 75 minutes post-dose). […]

[2] = as above; format: in vivo; settings: tablet 1 mg sCT + 5-CNAC disodium salt (equivalent to 200 mg 5-CNAC), 5 to 60 minutes prior to a meal instead of with a meal
[3] = Treatment group A: after overnight fast
[4] = Treatment group B: 1 hour pre-meal
[5] = Treatment group C: 30 minutes pre-meal
[6] = Treatment group D: 15 minutes pre-meal
[7] = Treatment group E: 5 minutes pre-meal
[8] = Treatment group G: 2.5 hours post-meal

plasma levels of sCT ([1]; Groups C and D: administered either 15 or 30 minutes before a meal): maximum plasma levels
plasma levels of sCT ([1]; administration with a meal (Group F)): negligible
AUC [1, 3]: 0.0663 ± 0.0422 ng·h/mL
Cmax [1, 3]: 0.139 ± 0.0743 ng/mL
AUC [1, 4]: 0.0634 ± 0.0379 ng·h/mL
Cmax [1, 4]: 0.136 ± 0.0647 ng/mL
AUC [1, 5]: 0.079 ± 0.0793 ng·h/mL
Cmax [1, 5]: 0.162 ± 0.142 ng/mL
AUC [1, 6]: 0.0721 ± 0.0451 ng·h/mL
Cmax [1, 6]: 0.162 ± 0.0679 ng/mL
AUC [1, 7]: 0.0604 ± 0.0674 ng·h/mL
Cmax [1, 7]: 0.149 ± 0.151 ng/mL
AUC ([1]; Treatment group F: with meal): 0.0126 ± 0.0185 ng·h/mL
Cmax ([1]; Treatment group F: with meal): 0.024 ± 0.0267 ng/mL
AUC [1, 8]: 0.0611 ± 0.114 ng·h/mL
Cmax [1, 8]: 0.0798 ± 0.134 ng/mL
increase (Cmax and AUC) in oral absorption [2]: ~5 fold
SMILES: CC(C)C[C@H](NC(=O)[C@H](CCCCN)NC(=O)CNC(=O)[C@H](CC(C)C)NC(=O)[C@@H](NC(=O)[C@@H]1CSSC[C@H](N)C(=O)N[C@@H](CO)C(=O)N[C@@H](CC(N)=O)C(=O)N[C@@H](CC(C)C)C(=O)N[C@@H](CO)C(=O)N[C@@H]([C@@H](C)O)C(=O)N1)C(C)C)C(=O)N[C@@H](CO)C(=O)N[C@@H](CCC(N)=O)C(=O)N[C@@H](CCC(=O)O)C(=O)N[C@@H](CC(C)C)C(=O)N[C@@H](Cc1c[nH]cn1)C(=O)N[C@@H](CCCCN)C(=O)N[C@@H](CC(C)C)C(=O)N[C@@H](CCC(N)=O)C(=O)N[C@H](C(=O)N[C@@H](Cc1ccc(O)cc1)C(=O)N1CCC[C@H]1C(=O)N[C@@H](CCCNC(=N)N)C(=O)N[C@H](C(=O)N[C@@H](CC(N)=O)C(=O)N[C@H](C(=O)NCC(=O)N[C@@H](CO)C(=O)NCC(=O)N[C@H](C(=O)N1CCC[C@H]1C(N)=O)[C@@H](C)O)[C@@H](C)O)[C@@H](C)O)[C@@H](C)O [sCT, salmon calcitonin]
